Laboratory results published in patent publication US20170152239A1, “BENZAMIDE AND HETEROBENZAMIDE COMPOUNDS” (PFIZER INC., priority 2012, published 2017).

target: WT EZH2 (EZH2 4 protein complex: EZH2, EED, SUZ12, RbAp48) (Homo sapiens, UniProt O75530+Q09028+Q15022+Q15910); assay: WT EZH2 nucleosome assay; type: biochemical; conditions: nucleosome assay, 5 nM EZH2 4-protein complex, 1.5 μM SAM; read-out: WT EZH2 IC50
Procedure: Nucleosome Assay Protocol:
A. Compound preparation • 1. Prepare 10 mM stock solutions in 100% DMSO from solid material • 2. Serial dilute 10 mM compound stocks either 2 or 3-fold in 100% DMSO to generate compounds for 11 point dose response
B. Reagent preparation • 1. Prepare 1× assay buffer containing 100 mM Tris pH 8.5, 4 mM DTT and 0.01% Tween-20 • 2. Dilute purified HeLA oligonucleosomes and recombinant histone H1 (New England Biolabs) in assay buffer to 1.67×. • 3. Dilute EZH2 4 protein complex (EZH2, EED, SUZ12, RbAp48) to 3.5× in assay buffer • 4. Prepare 10×^3H SAM solution in assay buffer using 0.94 μCi/well of radioactive SAM (Perkin Elmer) and sufficient non-labeled SAM (Sigma) for 1.5 μM final concentration. • 5. Dilute TCA to 20% in DI water
C. Enzyme reaction • 1. Final reaction conditions are 5 nM EZH2 4-protein complex, 1.5 μM SAM, 25 μg/mL oligonucleosomes, 50 nM rH1 in a 50 μl reaction volume. • 2. Add 1 μl of diluted compound to the assay plate (96-well V-bottom polypropylene plates) or 1 μl of DMSO for control wells. • 3. Add 30 μl of nucleosomes to the assay plate • 4. Add 14 μl of EZH2 4 protein complex to the assay plate • 5. Add 5 μl of ^3H SAM to start the reaction. • 6. Stop the reaction after 60 minutes with the addition of 100 μl of 20% TCA • 7. Transfer 150 μl of quenched reaction into a prepared filterplate (Millipore #MSIPN4B10) • 8. Apply vacuum to the filterplate to filter the reaction mix through the membrane. • 9. Wash the filterplate with 8×200 μl of PBS, blot dry and dry in an oven for 30 minutes • 10. Add 50 μl of microscint-20 scintillation fluid (Perkin Elmer) to each well, wait 30 minutes and count on a liquid scintillation counter.
D. Data analysis • 1. IC50 values were determined by fitting the data to a 4-parameter IC50 equation using proprietary curve fitting software.
Wild type (WT) EZH2% Effect at 20 μM and IC50 values (μM) generated in WT EZH2 or EZH2PRC2 mutant Y641N nucleosome assays are provided in Table 3 below. A blank entry in the table indicates the data was not generated in that assay.

WT EZH2 (EZH2 4 protein complex: EZH2, EED, SUZ12, RbAp48), sequence (Q15910 whole entry): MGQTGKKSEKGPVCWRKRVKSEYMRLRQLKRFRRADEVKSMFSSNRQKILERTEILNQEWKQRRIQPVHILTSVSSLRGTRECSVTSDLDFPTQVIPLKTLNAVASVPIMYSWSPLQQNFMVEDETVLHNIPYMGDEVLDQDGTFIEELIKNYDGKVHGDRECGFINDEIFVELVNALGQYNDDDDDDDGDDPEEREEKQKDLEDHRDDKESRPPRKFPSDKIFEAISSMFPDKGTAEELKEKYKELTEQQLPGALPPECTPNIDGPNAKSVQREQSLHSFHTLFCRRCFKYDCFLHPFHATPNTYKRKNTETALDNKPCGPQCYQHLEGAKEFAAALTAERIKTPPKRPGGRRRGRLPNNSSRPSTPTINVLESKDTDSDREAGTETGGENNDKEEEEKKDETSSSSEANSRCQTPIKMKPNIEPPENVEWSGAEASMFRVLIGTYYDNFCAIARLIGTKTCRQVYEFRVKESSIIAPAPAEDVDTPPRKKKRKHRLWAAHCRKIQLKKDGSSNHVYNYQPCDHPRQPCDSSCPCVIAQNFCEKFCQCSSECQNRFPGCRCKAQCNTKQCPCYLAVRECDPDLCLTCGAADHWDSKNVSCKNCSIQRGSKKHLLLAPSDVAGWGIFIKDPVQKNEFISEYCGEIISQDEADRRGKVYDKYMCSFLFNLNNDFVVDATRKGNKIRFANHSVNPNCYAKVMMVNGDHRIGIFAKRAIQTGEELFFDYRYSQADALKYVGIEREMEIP
WT EZH2 (EZH2 4 protein complex: EZH2, EED, SUZ12, RbAp48), sequence (O75530 whole entry partner): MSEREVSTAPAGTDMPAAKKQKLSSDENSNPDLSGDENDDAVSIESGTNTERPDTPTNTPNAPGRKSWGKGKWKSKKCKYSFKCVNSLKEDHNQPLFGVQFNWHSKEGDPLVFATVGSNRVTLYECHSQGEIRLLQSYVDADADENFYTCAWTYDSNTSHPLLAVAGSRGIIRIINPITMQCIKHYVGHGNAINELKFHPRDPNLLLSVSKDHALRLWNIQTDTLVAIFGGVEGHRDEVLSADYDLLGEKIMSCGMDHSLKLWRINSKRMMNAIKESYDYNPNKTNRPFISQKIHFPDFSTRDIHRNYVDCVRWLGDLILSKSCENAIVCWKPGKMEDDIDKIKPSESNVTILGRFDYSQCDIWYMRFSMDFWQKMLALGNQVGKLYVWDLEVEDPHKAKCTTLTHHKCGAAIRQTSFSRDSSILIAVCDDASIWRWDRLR
WT EZH2 (EZH2 4 protein complex: EZH2, EED, SUZ12, RbAp48), sequence (Q15022 whole entry partner): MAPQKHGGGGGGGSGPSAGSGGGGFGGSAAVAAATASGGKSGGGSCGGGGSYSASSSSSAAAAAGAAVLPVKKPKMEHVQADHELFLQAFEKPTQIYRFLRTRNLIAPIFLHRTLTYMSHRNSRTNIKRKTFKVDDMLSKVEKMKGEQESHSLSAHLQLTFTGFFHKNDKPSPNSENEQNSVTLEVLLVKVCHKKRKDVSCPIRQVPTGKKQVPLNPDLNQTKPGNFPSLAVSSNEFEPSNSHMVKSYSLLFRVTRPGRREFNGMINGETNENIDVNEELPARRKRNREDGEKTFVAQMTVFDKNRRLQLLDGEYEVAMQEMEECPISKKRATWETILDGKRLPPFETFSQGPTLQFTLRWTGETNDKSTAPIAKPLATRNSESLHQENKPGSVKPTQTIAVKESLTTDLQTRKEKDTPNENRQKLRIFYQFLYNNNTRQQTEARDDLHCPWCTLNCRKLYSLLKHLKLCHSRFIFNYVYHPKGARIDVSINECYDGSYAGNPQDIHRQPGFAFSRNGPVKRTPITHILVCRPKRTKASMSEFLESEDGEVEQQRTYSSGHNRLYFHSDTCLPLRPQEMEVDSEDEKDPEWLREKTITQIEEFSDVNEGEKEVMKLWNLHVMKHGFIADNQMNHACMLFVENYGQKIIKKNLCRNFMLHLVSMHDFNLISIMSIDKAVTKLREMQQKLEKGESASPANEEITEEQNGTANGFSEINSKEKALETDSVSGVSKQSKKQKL
WT EZH2 (EZH2 4 protein complex: EZH2, EED, SUZ12, RbAp48), sequence (Q09028 whole entry partner): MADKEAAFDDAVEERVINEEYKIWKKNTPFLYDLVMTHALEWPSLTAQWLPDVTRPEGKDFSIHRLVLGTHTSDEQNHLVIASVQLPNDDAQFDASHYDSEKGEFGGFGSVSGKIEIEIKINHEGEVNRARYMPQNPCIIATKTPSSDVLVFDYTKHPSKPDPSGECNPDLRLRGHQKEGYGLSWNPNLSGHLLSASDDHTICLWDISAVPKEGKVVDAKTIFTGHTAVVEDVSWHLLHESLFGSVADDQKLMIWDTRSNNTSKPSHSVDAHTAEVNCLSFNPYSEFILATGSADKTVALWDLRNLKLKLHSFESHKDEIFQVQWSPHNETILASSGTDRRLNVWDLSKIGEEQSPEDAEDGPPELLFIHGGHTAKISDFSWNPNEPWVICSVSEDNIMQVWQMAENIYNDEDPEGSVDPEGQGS

| Structure (SMILES) | IC50 [nM] |
| --- | --- |
| Cc1cc(C)c(CNC(=O)c2cccc(-c3c(C)cnn3C)c2C)c(=O)[nH]1 [Example 1, N-[(4,6-dimethyl-2-oxo-1,2-dihydropyridin-3-yl)methyl]-3-(1,4-dimethyl-1H-pyrazol-5-yl)-2-methylbenzamide] | 470 |
| Cc1cc(C)c(CNC(=O)c2cccc(-c3c(C)n[nH]c3C)c2C)c(=O)[nH]1 [Example 3, N-[(4,6-dimethyl-2-oxo-1,2-dihydropyridin-3-yl)methyl]-3-(3,5-dimethyl-1H-pyrazol-4-yl)-2-methylbenzamide] | 920 |
| Cc1cc(C)c(CNC(=O)c2cccc(-c3c(C)ncn3C)c2C)c(=O)[nH]1 [Example 4, 3-(1,4-dimethyl-1H-imidazol-5-yl)-N-[(4,6-dimethyl-2-oxo-1,2-dihydropyridin-3-yl)methyl]-2-methylbenzamide] | 230 |
| Cc1cc(C)c(CNC(=O)c2cc(Cl)cc(-c3c(C)cnn3C)c2C)c(=O)[nH]1 [Example 7, 5-chloro-N-[(4,6-dimethyl-2-oxo-1,2-dihydropyridin-3-yl)methyl]-3-(1,4-dimethyl-1H-pyrazol-5-yl)-2-methylbenzamide] | 220 |
| CCCc1cc(C)[nH]c(=O)c1CNC(=O)c1cc(Cl)cc(-c2ccnn2C)c1C [Example 8, 5-chloro-2-methyl-N-[(6-methyl-2-oxo-4-propyl-1,2-dihydropyridin-3-yl)methyl]-3-(1-methyl-1H-pyrazol-5-yl)benzamide] | 880 |
| Cc1cc(C)c(CNC(=O)c2cccc(-c3ccnn3C)c2Cl)c(=O)[nH]1 [Example 9, 2-chloro-N-[(4,6-dimethyl-2-oxo-1,2-dihydropyridin-3-yl)methyl]-3-(1-methyl-1H-pyrazol-5-yl)benzamide] | 700 |
| Cc1cc(C)c(CNC(=O)c2cccc(-c3c(Cl)cnn3C)c2C)c(=O)[nH]1 [Example 10, 3-(4-chloro-1-methyl-1H-pyrazol-5-yl)-N-[(4,6-dimethyl-2-oxo-1,2-dihydropyridin-3-yl)methyl]-2-methylbenzamide] | 380 |
| Cc1cc(C)c(CNC(=O)c2cccc(-c3c(F)cnn3C)c2C)c(=O)[nH]1 [Example 11, N-[(4,6-dimethyl-2-oxo-1,2-dihydropyridin-3-yl)methyl]-3-(4-fluoro-1-methyl-1H-pyrazol-5-yl)-2-methylbenzamide] | 360 |
| Cc1cc(C)c(CNC(=O)c2cc(Cl)cc(-n3c(C)cnc3C)c2C)c(=O)[nH]1 [Example 28, 5-chloro-3-(2,5-dimethyl-1H-imidazol-1-yl)-N-[(4,6-dimethyl-2-oxo-1,2-dihydropyridin-3-yl)methyl]-2-methylbenzamide] | 260 |
| Cc1cc(C)c(CNC(=O)c2cc(Cl)cc(-n3ccnc3C)c2C)c(=O)[nH]1 [Example 29, 5-chloro-N-[(4,6-dimethyl-2-oxo-1,2-dihydropyridin-3-yl)methyl]-2-methyl-3-(2-methyl-1H-imidazol-1-yl)benzamide] | 710 |
| Cc1cc(C)c(CNC(=O)c2cc(C#N)cc(-c3c(C)cnn3C)c2C)c(=O)[nH]1 [Example 30, 5-cyano-N-[(4,6-dimethyl-2-oxo-1,2-dihydropyridin-3-yl)methyl]-3-(1,4-dimethyl-1H-pyrazol-5-yl)-2-methylbenzamide] | 540 |
| Cc1cc(C)c(CNC(=O)c2nc(-c3ccc(N)nc3)nc(-c3ccnn3C)c2C)c(=O)[nH]1 [Example 34, 2-(6-aminopyridin-3-yl)-N-[(4,6-dimethyl-2-oxo-1,2-dihydropyridin-3-yl)methyl]-5-methyl-6-(1-methyl-1H-pyrazol-5-yl)pyrimidine-4-carboxamide] | 940 |
| Cc1cc(C)c(CNC(=O)c2cc(F)cc(-c3c(C)cnn3C)c2C)c(=O)[nH]1 [Example 38, N-[(4,6-dimethyl-2-oxo-1,2-dihydropyridin-3-yl)methyl]-3-(1,4-dimethyl-1H-pyrazol-5-yl)-5-fluoro-2-methylbenz-amide] | 710 |
| CCc1cnn(C)c1-c1cccc(C(=O)NCc2c(C)cc(C)[nH]c2=O)c1C [Example 39, N-[(4,6-dimethyl-2-oxo-1,2-dihydropyridin-3-yl)methyl]-3-(4-ethyl-1-methyl-1H-pyrazol-5-yl)-2-methylbenz-amide] | 870 |
| Cc1cc(C)c(CNC(=O)c2nc(Cl)nc(N3C4CCC3CC4)c2C)c(=O)[nH]1 [Example 40, 6-(7-azabicyclo[2.2.1]hept-7-yl)-2-chloro-N-[(4,6-dimethyl-2-oxo-1,2-dihydropyridin-3-yl)methyl]-5-methylpyrimi-dine-4-carboxamide] | 1030 |

Now those with a lower IC50, led by results:

| IC50 [nM] | Structure (SMILES) |
| --- | --- |
| 110 | CCn1ncc(C)c1-c1cccc(C(=O)NCc2c(C)cc(C)[nH]c2=O)c1C [Example 12, N-[(4,6-dimethyl-2-oxo-1,2-dihydropyridin-3-yl)methyl]-3-(1-ethyl-4-methyl-1H-pyrazol-5-yl)-2-methylbenzamide] |
| 160 | Cc1cc(C)c(CNC(=O)c2cc(-c3cncnc3)cc(-c3ccnn3C)c2C)c(=O)[nH]1 [Example 17, N-[(4,6-dimethyl-2-oxo-1,2-dihydropyridin-3-yl)methyl]-2-methyl-3-(1-methyl-1H-pyrazol-5-yl)-5-pyrimidin-5-ylbenzamide] |
| 140 | Cc1cc(C)c(CNC(=O)c2cc(-c3cnn(C)c3)cc(-c3ccnn3C)c2C)c(=O)[nH]1 [Example 18, N-[(4,6-dimethyl-2-oxo-1,2-dihydropyridin-3-yl)methyl]-2-methyl-5-(1-methyl-1H-pyrazol-4-yl)-3-(1-methyl-1H-pyrazol-5-yl)benzamide] |
| 41 | Cc1cc(C)c(CNC(=O)c2cc(-c3ccc(N)nc3)cc(-c3ccnn3C)c2C)c(=O)[nH]1 [Example 19, 5-(6-aminopyridin-3-yl)-N-[(4,6-dimethyl-2-oxo-1,2-dihydropyridin-3-yl)methyl]-2-methyl-3-(1-methyl-1H-pyrazol-5-yl)benzamide] |
| 190 | Cc1cc(C)c(CNC(=O)c2cc(C3=CCOCC3)cc(-c3ccnn3C)c2C)c(=O)[nH]1 [Example 20, 5-(3,6-dihydro-2H-pyran-4-yl)-N-[(4,6-dimethyl-2-oxo-1,2-dihydropyridin-3-yl)methyl]-2-methyl-3-(1-methyl-1H-pyrazol-5-yl)benzamide] |
| 19 | Cc1cc(C)c(CNC(=O)c2cc(-c3cnc(N4CCOCC4)nc3)cc(-c3c(C)cnn3C)c2C)c(=O)[nH]1 [Example 21, N-[(4,6-dimethyl-2-oxo-1,2-dihydropyridin-3-yl)methyl]-3-(1,4-dimethyl-1H-pyrazol-5-yl)-2-methyl-5-(2-morpholin-4-ylpyrimidin-5-yl)benzamide] |
| 15 | Cc1cc(C)c(CNC(=O)c2cc(-c3cnc(N4C5CCC4COC5)nc3)cc(-c3c(C)cnn3C)c2C)c(=O)[nH]1 [Example 23, N-[(4,6-dimethyl-2-oxo-1,2-dihydropyridin-3-yl)methyl]-3-(1,4-dimethyl-1H-pyrazol-5-yl)-2-methyl-5-{2-[3-oxa-8-azabicyclo[3.2.1]oct-8-yl]pyrimidin-5-yl}benzamide] |
| 160 | COc1ncc(-c2cc(C(=O)NCc3c(C)cc(C)[nH]c3=O)c(C)c(-c3c(C)cnn3C)c2)cn1 [Example 25, N-[(4,6-dimethyl-2-oxo-1,2-dihydropyridin-3-yl)methyl]-3-(1,4-dimethyl-1H-pyrazol-5-yl)-5-(2-methoxypyrimidin-5-yl)-2-methylbenzamide] |
